Test [1] relates to MCF-7 human breast cancer cells. The test can be described thus: Annexin V-FITC flow cytometry for apoptotic cells, MCF7. In kind it is cell-based. The conditions noted are these: 24 hrs, 0 μM to 200 μM. Here is the method: (§1) SW480 human colon cancer cells and MCF7 breast cancer cells were grown following the instructions of American Type Culture Collection (ATCC, Monassas, Va.). The cells were treated with the test peptides (YJB01, YJB05, or YJB06) for 24 hrs at concentrations ranging from 0 μM, to 200 μM. After treatment, cells were trypsinized and stained with Annexin V-FITC (100× dilution) for 15 minutes. Annexin V-FITC fluorescence intensities were analyzed by FACSCaliber (BD Bioscience) following standard protocols. Annexin V (+) cells are apoptotic cells.
(§2) When cells undergo apoptosis, the inner membrane phospholipid, phosphotidylserine (PS), flips to the outer membrane and can be recognized by the […]. The green FITC fluorescence can be determined by flow cytometry and thus Annexin V (+) cells are apoptotic cells.
(§3) In this study, SW480 human cancer cells and MCF7 breast cancer cells were grown following the instructions of American Type Culture Collection (ATCC, Monassas, Va.). The cells were treated with the test peptides (YJB01, YJB05, or YJB06) for 24 hrs at concentrations ranging from 0 μM, to 200 μM. After treatment cells were trypsinized and stained with Annexin V-FITC (100× dilution) for 15 minutes. Annexin V-FITC fluorescence intensities were analyzed by FACSCaliber (BD Bioscience) following standard protocols.
A general note: A flow cytometer gives signals particle by particle.

Test [2] deals with SW480 human colon cancer cells. The experiment in a line: Annexin V-FITC flow cytometry for apoptotic cells, SW480. In kind it is cell-based. The conditions noted are these: 24 hrs, 0 μM to 200 μM. The protocol:
as §1, §2, §3

For test [3], the system named is SW480 human colon cancer cells. The test can be described thus: RONS levels by DCFDA probe, flow cytometry. In kind it is cell-based. The conditions noted are these: 1 hr, control 14.69. Here is the method: SW480 human colon cancer cells were grown following the instructions of American Type Culture Collection (ATCC, Monassas, Va.). The cells were treated with the test peptide YJB01 for 1 hr at either 20 μM or 100 μM. After treatment, cells were trypsinized and stained with DCFDA (10 μmol/L) for 30 minutes at 37° C. DCFDA fluorescence intensity was analyzed by FACSCaliber (BD Bioscience) following standard protocols. […] Thus, FIG. 6A indicates YJB01 induces RONS production in a concentration dependent manner.
The levels of RONS in SW480 and MCF-7 cells were evaluated using the methodology described in Rigas, B., and Y. Sun. (2008), using the general RONS probe, dichlorodihydrofluorescein diacetate (DCFDA). (Rigas, B., and Sun., Y., (2008), Br J Cancer 98:1157-1160).
SW480 human colon cancer cells were grown following the instructions of American Type Culture Collection (ATCC, Monassas, Va.). The cells were treated with the test peptide YJB01 for 1 hr at either 20 μM or 100 μM. After treatment, cells were trypsinized and stained with DCFDA (10 μmol/L) for 30 minutes at 37°. DCFDA fluorescence intensity was analyzed by FACSCaliber (BD Bioscience) following standard protocols. […] Thus, FIG. 6A indicates YJB01 induces RONS production in a concentration dependent manner.

The test system of test [4] is SW480 human colon cancer cell xenografts. The test can be described thus: In vivo xenograft assay of tumor size, SCID mice. The conditions noted are these: 100 μg intraperitoneally once a day, 10 days, one mouse. Here is the method:
Immunodeficient SCID mice (from Jackson Lab) were transplanted subcutaneously to their flank with 1.5 million SW480 human colon cancer cells. After the tumor size reached 120-150 mm^3, one mouse was treated with 100 μg YJB01 peptide injected intraperitoneally once a day, and the other one was treated with DMSO as a vehicle control. The tumor size was measured every two days (see FIG. 3A and FIG. 3B). The tumor volume was calculated based on its length (L) and width (W) using the formula Tumor volume=LW(L+W/2)0.56. (Rigas, B., and Kozoni, V., (2008) International Journal of Oncology, 32: 97-100). On the 10th day of treatment, the tumor volume was determined, the SCID mice were sacrificed and the tumors were excised and their weight was recorded (FIG. 3B).

The target of test [5] is T1, thioredoxin 1 (Homo sapiens, UniProt P10599).
T1 construct: endogenous in cells; host or cells: SW480 human colon cancer cells
T1 sequence (P10599 1-105): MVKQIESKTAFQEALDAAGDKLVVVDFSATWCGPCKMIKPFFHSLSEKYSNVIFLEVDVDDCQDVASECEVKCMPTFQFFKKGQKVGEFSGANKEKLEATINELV
The experiment in a line: Thioredoxin 1 redox state, native PAGE immunoblot in SW480 cells. The test is classed as cell-based. The conditions noted are these: YJB01 20 μM and 100 μM, YJB05 100 μM. Here is the method: SW480 human colon cancer cells were grown following the instructions of American Type Culture Collection (ATCC, Monassas, Va.). Cells were treated with either no peptide, with YBJ01 (at 20 μM and 100 μM), or with YBJ05 (at 100 μM). 10^6 cells were lysed in 6 mol/L guanidinium chloride, 50 mmol/L Tris/HCL (pH 8.3), 3 mmol/L EDTA, and 0.5% Triton-X-100 containing 50 mmol/L iodoacetic acid. After 30 min at 37° C., the excess idoacetic acid was removed using Microspin G-25 columns (GE Healthcare Life Sciences). Oxidized and reduced thioredxoin was separated by native PAGE. The gel was electroblotted onto a nitrocellulose membrane and probed with thioredoxin antibodies, followed by HRP-conjugated secondary antibody. Bands corresponding to thioredoxin were visualized by ECL.
SW480 human colon cancer cells were grown following the instructions of American Type Culture Collection (ATCC, Monassas, Va.). Cells were treated with either no peptide, with YBJ01 (at 20 μM and 100 μM), or with YBJ05 (at 100 μM). 10^6 cells from each sample were lysed in 6 mol/L guanidinium chloride, 50 mmol/L Tris/HCL (pH 8.3), 3 mmol/L EDTA, and 0.5% Triton-X-100 containing 50 mmol/L iodoacetic acid. After 30 min at 37° C., the excess idoacetic acid was removed using Microspin G-25 columns (GE Healthcare Life Sciences). Oxidized and reduced thioredxoin was separated by native PAGE. […]
(In general: A western blot detects proteins with antibodies after separation by electrophoresis.)

Structures are written as SMILES. “And” between values parts separate entries of the source, which are not always exact repeats. Equal entries are not always repeated. “Also recorded” adds a separate entry of the source. Positions of bridges follow the written chain, without caps; N, C: chain ends. Residues, ends and D or L forms follow the SMILES beside them.

Regarding `CC[C@H](C)[C@H](NC(=O)[C@H](CCCCN)NC(=O)[C@@H](NC(=O)[C@H](CCC(N)=O)NC(=O)[C@H](CCCNC(=N)N)NC(=O)[C@@H]1CCCN1C(=O)[C@H](CCCCN)NC(=O)[C@@H]1CSSC[C@H](NC(=O)[C@H](Cc2c[nH]c3ccccc23)NC(=O)[C@@H](NC(=O)[C@H](C)N)[C@@H](C)O)C(=O)NCC(=O)N2CCC[C@H]2C(=O)N1)[C@@H](C)CC)C(=O)N[C@@H](Cc1c[nH]c2ccccc12)C(=O)N[C@@H](Cc1ccccc1)C(=O)N[C@@H](CCC(N)=O)C(=O)N[C@@H](CC(N)=O)C(=O)N[C@@H](CCCNC(=N)N)C(=O)N[C@@H](CCCNC(=N)N)C(=O)N[C@@H](CCSC)C(=O)N[C@@H](CCCCN)C(=O)N[C@@H](Cc1c[nH]c2ccccc12)C(=O)N[C@@H](CCCCN)C(=O)N[C@@H](CCCCN)C(=O)O` [YJB01] (H-ATWCGPCKPRQIKIWFQNRRMKWKK-OH; disulfide 4-7; N-terminus and C-terminus assumed), the “apoptosis, Annexin V (+) cells, MCF7” value in test [1] is given as “cell killing effect”. Besides, the “apoptosis, Annexin V (+) cells, SW480” value in test [2] was “cell killing effect”. Also, the “Geometric Mean of the fluorescence intensity of DCFDA” value stood at 19.05 in test [3] (20 μM) and 29.6 in test [3] (100 μM). In addition, the “tumor growth at day 10 comparing with day 1” value in test [4] is −0.04% and −4%. Moreover, the “induction of the oxidized form of thioredoxin 1” value in test [5] is “induces the oxidized form of thioredoxin 1; also recorded: capable of inducing oxidation”.

The record behind these values is patent US8754047B2, “Peptide compositions and methods of use” (The Research Foundation for the State University of New York, priority 2008, dated 2014).
